According to ChEMBL document CHEMBL5523718, “Design, synthesis, molecular modeling, in vitro and in vivo biological evaluation of potent anthranilamide derivatives as dual P-glycoprotein and CYP3A4 inhibitors” (Eur J Med Chem, 2024):
≈ marks a conversion by molar mass, not a printed value. Values belong to the molecule of their own block, whether it stands above or below them.

What was measured:
[1] = molecular target: T1, Broad substrate specificity ATP-binding cassette transporter ABCG2 (Homo sapiens, UniProt Q9UNQ0); experiment: Inhibition of BCRP (unknown origin) ATPase activity
T1 sequence (Q9UNQ0 whole entry): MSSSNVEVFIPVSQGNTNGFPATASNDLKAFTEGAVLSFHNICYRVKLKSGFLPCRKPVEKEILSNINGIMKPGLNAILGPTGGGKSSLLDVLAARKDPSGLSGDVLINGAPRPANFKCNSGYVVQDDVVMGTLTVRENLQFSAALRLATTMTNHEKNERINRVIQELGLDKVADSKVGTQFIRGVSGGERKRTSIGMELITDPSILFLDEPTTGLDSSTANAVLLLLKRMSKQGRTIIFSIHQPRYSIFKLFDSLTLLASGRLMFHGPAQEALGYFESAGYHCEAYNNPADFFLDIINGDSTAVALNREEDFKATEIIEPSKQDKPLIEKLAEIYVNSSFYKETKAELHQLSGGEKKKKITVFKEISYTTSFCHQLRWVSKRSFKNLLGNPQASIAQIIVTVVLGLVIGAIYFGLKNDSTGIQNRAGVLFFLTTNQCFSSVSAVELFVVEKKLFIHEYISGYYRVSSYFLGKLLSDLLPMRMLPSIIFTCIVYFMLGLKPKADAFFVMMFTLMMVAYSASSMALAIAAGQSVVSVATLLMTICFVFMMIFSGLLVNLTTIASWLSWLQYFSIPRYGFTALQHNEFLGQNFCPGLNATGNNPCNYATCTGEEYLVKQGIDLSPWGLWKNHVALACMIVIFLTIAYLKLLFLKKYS

[2] = molecular target: ATP-binding cassette sub-family C member 2 (Homo sapiens, UniProt Q92887); experiment: Inhibition of MRP2 (unknown origin) ATPase activity
Sequence of ATP-binding cassette sub-family C member 2 (Q92887 whole entry): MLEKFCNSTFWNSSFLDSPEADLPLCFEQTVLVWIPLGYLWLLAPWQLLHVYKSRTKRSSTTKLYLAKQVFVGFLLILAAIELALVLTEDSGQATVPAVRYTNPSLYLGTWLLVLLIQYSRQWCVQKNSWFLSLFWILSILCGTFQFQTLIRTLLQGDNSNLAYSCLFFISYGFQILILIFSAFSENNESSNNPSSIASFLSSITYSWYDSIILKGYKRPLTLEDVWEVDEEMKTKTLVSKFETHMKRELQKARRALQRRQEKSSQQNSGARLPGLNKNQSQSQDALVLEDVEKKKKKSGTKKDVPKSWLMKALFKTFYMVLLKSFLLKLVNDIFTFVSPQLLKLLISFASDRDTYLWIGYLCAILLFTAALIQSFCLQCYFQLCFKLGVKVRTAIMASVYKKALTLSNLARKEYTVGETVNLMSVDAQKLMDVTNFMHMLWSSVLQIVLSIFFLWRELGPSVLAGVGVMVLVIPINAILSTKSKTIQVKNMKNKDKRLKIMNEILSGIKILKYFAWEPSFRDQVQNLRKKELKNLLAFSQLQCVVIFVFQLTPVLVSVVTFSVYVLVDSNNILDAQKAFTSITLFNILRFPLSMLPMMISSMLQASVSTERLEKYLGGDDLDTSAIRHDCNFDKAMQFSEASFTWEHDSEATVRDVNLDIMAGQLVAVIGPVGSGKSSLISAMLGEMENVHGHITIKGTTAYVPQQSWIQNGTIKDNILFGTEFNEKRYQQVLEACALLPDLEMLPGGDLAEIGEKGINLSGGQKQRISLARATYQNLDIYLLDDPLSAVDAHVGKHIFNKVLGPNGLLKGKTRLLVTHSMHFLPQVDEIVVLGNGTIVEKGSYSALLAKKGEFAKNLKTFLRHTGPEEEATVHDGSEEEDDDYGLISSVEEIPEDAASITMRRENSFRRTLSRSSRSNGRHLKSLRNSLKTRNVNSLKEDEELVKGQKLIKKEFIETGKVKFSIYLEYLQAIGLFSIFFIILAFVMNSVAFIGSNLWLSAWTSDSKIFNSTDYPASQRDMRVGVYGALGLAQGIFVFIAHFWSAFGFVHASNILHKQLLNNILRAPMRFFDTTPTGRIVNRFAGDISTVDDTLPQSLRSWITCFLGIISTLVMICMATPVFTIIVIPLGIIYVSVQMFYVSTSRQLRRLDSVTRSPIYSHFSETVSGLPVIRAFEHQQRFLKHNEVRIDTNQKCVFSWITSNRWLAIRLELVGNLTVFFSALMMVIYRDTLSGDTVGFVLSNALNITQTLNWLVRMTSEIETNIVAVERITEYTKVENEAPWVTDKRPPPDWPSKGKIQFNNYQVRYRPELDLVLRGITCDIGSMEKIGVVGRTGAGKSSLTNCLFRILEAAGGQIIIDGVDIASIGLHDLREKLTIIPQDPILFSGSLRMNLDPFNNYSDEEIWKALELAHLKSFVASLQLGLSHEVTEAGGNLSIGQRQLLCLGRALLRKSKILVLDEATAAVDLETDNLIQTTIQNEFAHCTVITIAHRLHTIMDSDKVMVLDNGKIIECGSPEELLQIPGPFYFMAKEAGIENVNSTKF

[3] = MRT in CD-1 mouse at 10 mg/kg, po measured upto 8 hrs by LC-MS/MS analysis; assay type: ADME, organism-based; conditions: in vivo
[4] = system: MES-SA/Dx5; experiment: Cytotoxicity against human MES-SA/Dx5 cells at 1.28 uM incubated for 3 days by MTT assay relative to control; assay type: functional; conditions: time 3 day
[5] = Equilibrium solubility of compound in PBS at pH 7.4; assay type: physicochemical; conditions: PBS
[6] = Metabolic stability in rat liver microsome assessed as intrinsic clearance; assay type: ADME; conditions: microsomes
[7] = Metabolic stability in monkey liver microsome assessed as half life; assay type: ADME, Macaca mulatta; conditions: rhesus monkey, liver microsomes
[8] = Metabolic stability in mouse liver microsome assessed as intrinsic clearance; assay type: ADME; conditions: microsomes
[9] = molecular target: T2, P-gp (ABCB1) (Homo sapiens, UniProt P08183); experiment: Inhibition of P-gp in human Caco-2 cells at 0.1 uM in presence of paclitaxel relative to control; assay type: cell-based; conditions: Caco-2, probe paclitaxel
T2 sequence (P08183 whole entry): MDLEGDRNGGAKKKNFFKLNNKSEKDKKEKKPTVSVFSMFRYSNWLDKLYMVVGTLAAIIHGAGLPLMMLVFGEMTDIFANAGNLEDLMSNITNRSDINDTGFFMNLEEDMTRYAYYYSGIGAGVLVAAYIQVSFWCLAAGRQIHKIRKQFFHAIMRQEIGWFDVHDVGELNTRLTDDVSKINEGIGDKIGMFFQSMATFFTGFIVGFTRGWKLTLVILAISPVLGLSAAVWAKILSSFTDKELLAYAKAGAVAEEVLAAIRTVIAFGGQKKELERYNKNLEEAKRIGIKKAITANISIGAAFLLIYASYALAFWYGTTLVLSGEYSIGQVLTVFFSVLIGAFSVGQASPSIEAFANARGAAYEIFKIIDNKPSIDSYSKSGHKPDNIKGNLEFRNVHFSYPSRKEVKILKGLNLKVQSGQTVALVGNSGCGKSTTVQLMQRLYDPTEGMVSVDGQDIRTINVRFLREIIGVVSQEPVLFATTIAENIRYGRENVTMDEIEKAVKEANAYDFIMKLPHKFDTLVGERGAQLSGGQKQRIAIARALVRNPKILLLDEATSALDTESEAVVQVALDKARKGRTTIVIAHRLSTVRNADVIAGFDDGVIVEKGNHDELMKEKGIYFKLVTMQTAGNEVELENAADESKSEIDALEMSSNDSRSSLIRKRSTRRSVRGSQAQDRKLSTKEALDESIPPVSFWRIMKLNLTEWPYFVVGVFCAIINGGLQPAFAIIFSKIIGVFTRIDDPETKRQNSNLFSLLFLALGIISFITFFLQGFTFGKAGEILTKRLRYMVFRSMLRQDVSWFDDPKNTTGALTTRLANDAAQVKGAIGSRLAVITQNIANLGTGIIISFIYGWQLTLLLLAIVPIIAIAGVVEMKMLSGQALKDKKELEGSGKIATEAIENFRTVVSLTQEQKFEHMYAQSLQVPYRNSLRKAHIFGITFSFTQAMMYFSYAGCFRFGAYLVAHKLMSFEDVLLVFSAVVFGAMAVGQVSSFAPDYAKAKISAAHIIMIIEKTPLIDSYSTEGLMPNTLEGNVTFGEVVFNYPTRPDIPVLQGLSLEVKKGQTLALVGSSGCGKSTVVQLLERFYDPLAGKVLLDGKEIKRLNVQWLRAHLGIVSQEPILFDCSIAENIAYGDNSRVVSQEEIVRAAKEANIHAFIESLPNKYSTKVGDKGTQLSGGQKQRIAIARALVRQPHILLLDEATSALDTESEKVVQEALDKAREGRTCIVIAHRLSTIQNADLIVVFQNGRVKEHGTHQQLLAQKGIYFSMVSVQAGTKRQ

[10] = Metabolic stability in mouse liver microsome assessed as half life; assay type: ADME; conditions: liver microsomes
[11] = molecular target: T3, ATP-dependent translocase ABCB1 (Homo sapiens, UniProt P08183); experiment: Inhibition of P-gp in human Caco-2 cells in presence of paclitaxel; assay type: cell-based
T3 sequence (P08183 whole entry): as above

[12] = Metabolic stability in rat liver microsome assessed as half life; assay type: ADME; conditions: liver microsomes
[13] = Half life in CD-1 mouse at 10 mg/kg, po measured upto 8 hrs by LC-MS/MS analysis; assay type: ADME, organism-based; conditions: in vivo
[14] = molecular target: T2, P-gp (ABCB1); experiment: Inhibition of P-gp in human Caco-2 cells at 1 uM in presence of paclitaxel relative to control; assay type: cell-based; conditions: Caco-2, probe paclitaxel
[15] = Inhibition of MRP1 (unknown origin) ATPase activity; design: species or system Homo sapiens
[16] = molecular target: T3, ATP-dependent translocase ABCB1; experiment: Inhibition of P-gp (unknown origin) ATPase activity
[17] = molecular target: T2, P-gp (ABCB1); experiment: Inhibition of P-gp in human Caco-2 cells at 10 uM in presence of paclitaxel relative to control; assay type: cell-based; conditions: Caco-2, probe paclitaxel
[18] = Metabolic stability in human liver microsome assessed as half life; assay type: ADME; conditions: liver microsomes
[19] = molecular target: T2, P-gp (ABCB1); experiment: Inhibition of P-gp in human Caco-2 cells at 0.01 uM in presence of paclitaxel relative to control; assay type: cell-based; conditions: Caco-2, probe paclitaxel
[20] = Metabolic stability in monkey liver microsome assessed as intrinsic clearance; assay type: ADME, Macaca mulatta; conditions: rhesus monkey, microsomes
[21] = molecular target: T2, P-gp (ABCB1); experiment: Inhibition of P-gp in human Caco-2 cells at 5 uM in presence of paclitaxel relative to control; assay type: cell-based; conditions: Caco-2, probe paclitaxel
[22] = Metabolic stability in human liver microsome assessed as intrinsic clearance; assay type: ADME; conditions: microsomes
[23] = molecular target: T3, ATP-dependent translocase ABCB1; experiment: Inhibition of P-gp in human MES-SA/Dx5 cells; assay type: cell-based
[24] = Apparent permeability of compound across basolateral to apical side in human Caco-2 cells; assay type: ADME, cell-based
[25] = Apparent permeability across basolateral to apical side in human Caco-2 cells assessed as drug recovery; assay type: ADME, cell-based; conditions: read-out: Drug recovery
[26] = Apparent permeability across apical to basolateral side in human Caco-2 cells assessed as drug recovery; assay type: ADME, cell-based; conditions: read-out: Drug recovery
[27] = Apparent permeability of compound across apical to basolateral side in human Caco-2 cells; assay type: ADME, cell-based
[28] = Tmax in Sprague-Dawley rat at 20 mg/kg, po measured upto 24 hrs by LC-MS/MS analysis; assay type: ADME, organism-based; conditions: in vivo
[29] = MRT in Sprague-Dawley rat at 20 mg/kg, po measured upto 24 hrs by LC-MS/MS analysis; assay type: ADME, organism-based; conditions: in vivo
[30] = Cmax in Sprague-Dawley rat at 20 mg/kg, po measured upto 24 hrs by LC-MS/MS analysis; assay type: ADME, organism-based; conditions: in vivo
[31] = AUC (0 to t) in Sprague-Dawley rat at 20 mg/kg, po measured upto 24 hrs by LC-MS/MS analysis; assay type: ADME, organism-based; conditions: in vivo

IC50 [1]: 237 nM
IC50 [2]: > 10000 nM
MRT [3]: 1.26 h
solubility thermodynamic [5]: 0.44 µM (≈ 0.285 µg/mL)
CLH [6]: < 23 µL/min/mg
half-life [7]: 0.583 h
CLH [8]: < 23 µL/min/mg
inhibition at 0.1 µM [9]: 77%
half-life [10]: > 1 h
IC50 [11]: 53 nM
half-life [12]: > 1 h
half-life [13]: 1.11 h
inhibition at 1 µM [14]: 92%
IC50 [15]: > 10000 nM
IC50 [16]: 35 nM
inhibition at 10 µM [17]: 96%
half-life [18]: > 1 h
inhibition at 0.01 µM [19]: 0%
CLH [20]: 39 µL/min/mg
inhibition at 5 µM [21]: 96%
CLH [22]: < 23 µL/min/mg
EC50 [23]: 35 nM
Structure (SMILES): COc1cc2c(cc1OC)CN(CCc1ccc(NC(=O)c3cc(OC)c(OC)cc3NC(=O)c3cnc4ccccc4c3)cc1)CC2
Activity [4]: 5%

Papp B→A [24]: 17.1 ×10⁻⁶ cm/s
recovery [25]: 66%
recovery [26]: 54%
Papp A→B [27]: 0.41 ×10⁻⁶ cm/s
Tmax [28]: 8 h
MRT [29]: 5.37 h
Cmax [30]: 14.9 ng/mL
AUCt [31]: 95.9 ng·h/mL
Structure (SMILES): CC(=O)O[C@H]1C(=O)[C@@]2(C)[C@H]([C@H](OC(=O)c3ccccc3)[C@]3(O)C[C@H](OC(=O)[C@H](O)[C@@H](NC(=O)c4ccccc4)c4ccccc4)C(C)=C1C3(C)C)[C@]1(OC(C)=O)CO[C@@H]1C[C@@H]2O [PACLITAXEL]
